Source: publication PMC2828149 (Journal of ethnopharmacology, 2009)
Converted amounts (≈) assume the structure as drawn. Read-outs that look alike come from different tables or passages of the source.

Assays:
[1] = biological target: T1, recombinant human Monoamine Oxidase B (MAO-B) (Homo sapiens, UniProt P27338); test: biochemical; assay type: biochemical
T1 sequence (P27338 1-520): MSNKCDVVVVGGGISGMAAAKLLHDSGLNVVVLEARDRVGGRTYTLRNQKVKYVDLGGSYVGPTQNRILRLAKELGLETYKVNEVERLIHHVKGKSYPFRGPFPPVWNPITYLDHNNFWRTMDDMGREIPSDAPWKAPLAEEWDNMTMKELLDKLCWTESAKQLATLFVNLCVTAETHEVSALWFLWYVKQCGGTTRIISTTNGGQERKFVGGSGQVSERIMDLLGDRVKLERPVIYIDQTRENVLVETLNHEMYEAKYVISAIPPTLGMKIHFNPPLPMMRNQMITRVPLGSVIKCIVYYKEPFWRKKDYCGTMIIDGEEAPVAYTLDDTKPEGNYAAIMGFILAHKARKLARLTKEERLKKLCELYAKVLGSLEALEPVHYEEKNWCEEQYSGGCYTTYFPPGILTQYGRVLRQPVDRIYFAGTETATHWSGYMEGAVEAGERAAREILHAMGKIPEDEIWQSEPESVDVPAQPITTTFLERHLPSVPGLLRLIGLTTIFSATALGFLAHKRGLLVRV

in vitro = assay type: cell-based; settings: human
[2] = test system: ROS generation in Myelomonocytic HL-60 cells; test: cell based antioxidant assay, inhibition of PMA-induced ROS generation; settings: for IC50: Homo sapiens, HL-60, read-out: Antioxidant IC50; for Antioxidant IC50: inhibition of PMA-induced ROS generation in HL-60 cells
[3] = biological target: T2, recombinant human Monoamine Oxidase A (MAO-A) (Homo sapiens, UniProt P21397); test: kynuramine deamination assay, recombinant human MAO-A; assay type: biochemical; settings: for MAO-A activity more potent than MAO-B: ratio of MAO-B to MAO-A IC50; for MAO-A inhibitory activity in words: pure compounds
T2 sequence (P21397 1-527): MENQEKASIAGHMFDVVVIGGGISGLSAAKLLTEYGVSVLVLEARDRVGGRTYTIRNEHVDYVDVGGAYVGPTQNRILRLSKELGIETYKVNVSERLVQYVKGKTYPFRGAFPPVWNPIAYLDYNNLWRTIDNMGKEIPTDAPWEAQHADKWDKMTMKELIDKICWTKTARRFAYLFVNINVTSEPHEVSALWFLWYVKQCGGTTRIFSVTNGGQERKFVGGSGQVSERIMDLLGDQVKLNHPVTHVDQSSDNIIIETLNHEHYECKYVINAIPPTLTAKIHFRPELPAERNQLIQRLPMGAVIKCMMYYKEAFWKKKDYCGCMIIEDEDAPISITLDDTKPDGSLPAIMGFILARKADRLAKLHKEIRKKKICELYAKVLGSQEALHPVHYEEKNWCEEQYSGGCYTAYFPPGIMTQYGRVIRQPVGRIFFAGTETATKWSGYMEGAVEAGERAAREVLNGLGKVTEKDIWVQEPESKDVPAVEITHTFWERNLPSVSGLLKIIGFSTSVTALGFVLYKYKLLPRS

MAO-A = settings: liver homogenate; ref Schwartz et al., 2003; cited from earlier work
rat striatal slices = settings: ref Schwartz et al., 2003; cited from earlier work
HL-60 cells = test: in vitro; assay type: cell-based; settings: HL-60 cells, 48 hours, XTT
PC12 cells = settings: ref Cho et al., 2008, Heo and Lee, 2005; cited from earlier work
[4] = read-out: MAO-B IC50, pure compounds and standards
[5] = read-out: MAO-A IC50, pure compounds and standards

Row | Molecule | IC50 at 48 h (in vitro) [µg/mL] | IC50 [2] [µg/mL] | IC50 [1, 4] [µM] | Cytotoxicity IC50 (HL-60 cells) | Antioxidant IC50 [2] | IC50 [3, 5] [µM] | further results
1 | COc1ccc2c(c1)[nH]c1c(C)nccc12 [compound 7, harmine] | > 31.2 | > 31.2 | – | – | – | – | IC50 [1]: 20 µM; MAO-A activity more potent than MAO-B [3]: > 10,000 fold; inhibition of MAO-A in words (MAO-A): concentration-dependent inhibition; release of dopamine in words (rat striatal slices): increase
2 | Oc1cc(O)c2c(c1)O[C@H](c1ccc(O)c(O)c1)[C@H](O)[C@H]2c1c(O)cc(O)c2c1O[C@H](c1ccc(O)c(O)c1)[C@H](O)C2 [compound 9, (−)-2R,3R-epicatechin-4β,8-(−)-2R,3R-epicatechin] | – | – | 35 | NC (NC = No cytotoxicity to HL-60 cells up to 31.25 µg/mL) | 0.57 µg/mL | 8.5 | –
3 | Cc1[nH]ccc2c1[nH]c1cc(=O)ccc12 [compound 3, harmol] | – | – | – | – | – | – | IC50 [3]: 0.018 µM; MAO-A inhibitory activity in words [3]: much weaker than 6 or 7
4 | COc1cccc2c1C(=O)c1c(O)c3c(c(O)c1C2=O)C[C@@](O)(C(=O)CO)C[C@@H]3O[C@H]1C[C@H](N)[C@H](O)[C@H](C)O1 [Doxorubicin, reference compound] | 0.2 to 0.35 (≈ 0.368 to 0.644 µM) | – | – | – | – | – | –
5 | Cc1c(C)c2c(c(C)c1O)CCC(C)(C(=O)O)O2 (stereo not drawn) [trolox, reference compound] | – | 0.14 (≈ 0.559 µM) | – | – | – | – | –
6 | banistenoside B [compound 2] | – | – | > 100 | 7.8 µg/mL | – | 21.5 | –
7 | banistenoside A [compound 1] | – | – | > 100 | >12.5 µg/mL | NA (NA = No antioxidant activity upto 31.25 µg/mL) | 4.9 | –
8 | Oc1cc(O)c2c(c1)O[C@H](c1ccc(O)c(O)c1)[C@H](O)C2 [compound 8, (−)-2R,3R–Epicatechin] | 6.3 (≈ 21.7 µM) | < 0.13 | – | – | – | – | IC50 [1]: 65 µM; protection from Aβ-induced neurotoxicity in words (PC12 cells): protection; IC50 [3]: 51.7 µM
9 | O=C1O[C@H]([C@@H](O)CO)C(O)=C1O [Vitamin C, reference compound] | – | – | – | – | 1.34 µg/mL | – | –
10 | COc1ccc2c3c([nH]c2c1)C(C)=NCC3 [compound 6, harmaline] | 25 (≈ 117 µM) | > 31.2 | – | – | – | – | IC50 [1]: 25 µM; MAO-A activity more potent than MAO-B [3]: > 10,000 fold
11 | COc1ccc2c3c([nH]c2c1)[C@@H](C)NCC3 [compound 5, tetrahydroharmine] | – | – | > 100 | NC (NC = No cytotoxicity to HL-60 cells up to 31.25 µg/mL) | NA (NA = No antioxidant activity upto 31.25 µg/mL) | 0.074 | MAO-A inhibitory activity in words [3]: much weaker than 6 or 7
